Data published in ChEMBL document CHEMBL1909046, “DrugMatrix in vitro pharmacology data”.
pIC50, pKi: −log10 of the molar value.

Legend:
[1] = DRUGMATRIX: Atrial Natriuretic Factor (ANF) radioligand binding (ligand: [125I] ANF (rat)); format: cell membranes, Cavia porcellus, Dunkin-Hartley, Adrenal gland, Membrane; conditions: Not Active = under 50% inhibition at 10 µM
[2] = DRUGMATRIX: Calcium Channel Type L, Benzothiazepine radioligand binding (ligand: [3H] Diltiazem); format: cell membranes, Rattus norvegicus, Wistar, Brain, Membrane; conditions: Not Active = under 50% inhibition at 10 µM
Substance-P receptor = Substance-P receptor (Homo sapiens, UniProt P25103); format: cell membranes, Membrane; conditions: cho; further: in other assays of this panel Not Active means under 50% inhibition at 10 µM
[3] = molecular target: T1, C-X-C chemokine receptor type 1 (Homo sapiens, UniProt P25024); further: in other assays of this panel Not Active means under 50% inhibition at 10 µM
T1 sequence (P25024 whole entry): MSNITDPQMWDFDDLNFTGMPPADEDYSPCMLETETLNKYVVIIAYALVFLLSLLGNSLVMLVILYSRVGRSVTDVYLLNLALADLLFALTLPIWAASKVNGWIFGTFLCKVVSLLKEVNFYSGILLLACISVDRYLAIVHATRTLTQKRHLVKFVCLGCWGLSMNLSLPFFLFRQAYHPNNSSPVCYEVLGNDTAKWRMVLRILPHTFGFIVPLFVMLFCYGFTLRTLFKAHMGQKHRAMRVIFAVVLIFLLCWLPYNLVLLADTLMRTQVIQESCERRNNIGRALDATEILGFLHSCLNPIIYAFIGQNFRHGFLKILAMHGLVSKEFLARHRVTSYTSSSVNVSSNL

Melanocortin receptor 4 = Melanocortin receptor 4 (Homo sapiens, UniProt P32245); format: cell membranes, Membrane; conditions: hek293; further: in other assays of this panel Not Active means under 50% inhibition at 10 µM
[4] = DRUGMATRIX: Phosphodiesterase PDE3 enzyme inhibition (substrate: [3H]cAMP + cAMP); format: tissue-based, Homo sapiens; conditions: platelet; Not Active = under 50% inhibition at 10 µM
[5] = molecular target: T2, 5-hydroxytryptamine receptor 1A (Rattus norvegicus, UniProt P19327); format: cell membranes, CHO-K1, Membrane; further: in other assays of this panel Not Active means under 50% inhibition at 10 µM
T2 sequence (P19327 whole entry): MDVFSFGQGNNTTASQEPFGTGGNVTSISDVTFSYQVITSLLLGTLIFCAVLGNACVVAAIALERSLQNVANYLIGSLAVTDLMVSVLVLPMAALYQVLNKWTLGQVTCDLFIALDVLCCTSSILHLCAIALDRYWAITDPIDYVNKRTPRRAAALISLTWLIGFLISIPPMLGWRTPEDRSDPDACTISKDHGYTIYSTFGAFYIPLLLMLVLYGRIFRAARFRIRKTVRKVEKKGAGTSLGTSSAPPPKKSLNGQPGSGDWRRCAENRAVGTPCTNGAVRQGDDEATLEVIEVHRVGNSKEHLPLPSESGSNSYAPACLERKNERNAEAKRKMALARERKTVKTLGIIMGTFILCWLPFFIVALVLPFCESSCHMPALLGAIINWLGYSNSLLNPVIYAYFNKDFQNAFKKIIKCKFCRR

Sequence of Substance-P receptor (P25103 whole entry): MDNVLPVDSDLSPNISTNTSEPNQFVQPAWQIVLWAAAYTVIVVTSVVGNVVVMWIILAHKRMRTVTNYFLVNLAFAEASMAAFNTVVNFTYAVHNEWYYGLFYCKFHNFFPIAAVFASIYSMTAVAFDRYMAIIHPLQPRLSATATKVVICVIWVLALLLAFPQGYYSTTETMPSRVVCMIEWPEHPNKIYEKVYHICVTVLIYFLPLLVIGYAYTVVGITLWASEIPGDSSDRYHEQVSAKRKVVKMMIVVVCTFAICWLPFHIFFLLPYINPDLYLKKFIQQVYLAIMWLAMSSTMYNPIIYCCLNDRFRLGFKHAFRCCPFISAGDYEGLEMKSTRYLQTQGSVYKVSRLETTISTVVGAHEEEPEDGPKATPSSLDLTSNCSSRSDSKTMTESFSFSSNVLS
Sequence of Melanocortin receptor 4 (P32245 whole entry): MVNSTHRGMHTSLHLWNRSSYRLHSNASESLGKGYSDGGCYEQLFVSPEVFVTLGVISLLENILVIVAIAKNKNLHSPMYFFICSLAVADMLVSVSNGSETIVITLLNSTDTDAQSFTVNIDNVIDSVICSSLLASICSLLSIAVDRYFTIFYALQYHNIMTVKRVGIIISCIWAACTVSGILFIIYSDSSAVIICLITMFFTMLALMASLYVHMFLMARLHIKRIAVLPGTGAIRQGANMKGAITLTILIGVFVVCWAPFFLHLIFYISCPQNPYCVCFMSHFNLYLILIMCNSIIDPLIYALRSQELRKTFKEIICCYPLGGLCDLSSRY

Compound | IC50 [1] | Ki [1] | IC50 [2] | Ki [2] | IC50 (Substance-P receptor) | IC50 [3] | IC50 (Melanocortin receptor 4) | IC50 [4] | Ki [4] | IC50 ([5]; cho-k1) | pIC50 ([5]; read-out: IC50) | pKi ([5]; read-out: Ki) | Ki (Substance-P receptor) | Ki [3] | Ki (Melanocortin receptor 4) | Ki ([5]; cho-k1)
Nc1nc(F)nc2c1ncn2[C@@H]1O[C@H](CO)[C@@H](O)[C@@H]1O [FLUDARABINE] | Not Active | Not Active | Not Active | Not Active | Not Active | Not Active | Not Active | Not Active | Not Active | Not Active |  |  |  |  |  | 
C=C(Cl)Cl [1,1-DICHLOROETHENE] | Not Active | Not Active | Not Active | Not Active | Not Active | Not Active | Not Active | Not Active | Not Active | Not Active |  |  |  |  |  | 
CC[C@H]1OC(=O)[C@H](C)[C@@H](O[C@H]2C[C@@](C)(OC)[C@@H](O)[C@H](C)O2)[C@H](C)[C@@H](O[C@@H]2O[C@H](C)C[C@H](N(C)C)[C@H]2O)[C@](C)(O)C[C@@H](C)C(=O)[C@H](C)[C@@H](O)[C@]1(C)O [ERYTHROMYCIN] | Not Active | Not Active | Not Active | Not Active | Not Active | Not Active | Not Active | Not Active | Not Active | Not Active |  |  |  |  |  | 
CCC1(c2ccccc2)C(=O)NC(=O)NC1=O [PHENOBARBITAL] | Not Active | Not Active | Not Active | Not Active | Not Active | Not Active | Not Active | Not Active | Not Active | Not Active |  |  |  |  |  | 
CCN1C[C@]2(COC)[C@H](O)C[C@H](OC)[C@@]34[C@@H]5C[C@@]6(O)[C@H](OC(=O)c7ccccc7)[C@@H]5[C@@](OC(C)=O)([C@@H]([C@H](OC)[C@H]23)[C@@H]14)[C@@H](O)[C@@H]6OC [ACONITINE] | Not Active | Not Active | Not Active | Not Active | Not Active | Not Active | Not Active | Not Active | Not Active | Not Active |  |  |  |  |  | 
CCN1CCN(C(=O)N[C@@H](C(=O)N[C@@H]2C(=O)N3[C@@H]2SC(C)(C)[C@@H]3C(=O)O)c2ccccc2)C(=O)C1=O [PIPERACILLIN] | Not Active | Not Active | Not Active | Not Active | Not Active | Not Active | Not Active | Not Active | Not Active | Not Active |  |  |  |  |  | 
O=C(O)c1ccccc1 [BENZOIC ACID] | Not Active | Not Active | Not Active | Not Active | Not Active | Not Active | Not Active | Not Active | Not Active | Not Active |  |  |  |  |  | 
OC[C@H]1O[C@@H]2O[C@H]3[C@H](O)[C@@H](O)[C@@H](O[C@H]4[C@H](O)[C@@H](O)[C@@H](O[C@H]5[C@H](O)[C@@H](O)[C@@H](O[C@H]6[C@H](O)[C@@H](O)[C@@H](O[C@H]7[C@H](O)[C@@H](O)[C@@H](O[C@H]1[C@H](O)[C@H]2O)O[C@@H]7CO)O[C@@H]6CO)O[C@@H]5CO)O[C@@H]4CO)O[C@@H]3CO [ALFADEX] | Not Active | Not Active | Not Active | Not Active | Not Active | Not Active | Not Active | Not Active | Not Active | Not Active |  |  |  |  |  | 
c1ccc2sc(SSc3nc4ccccc4s3)nc2c1 [BENZOTHIAZYL DISULFIDE] | Not Active | Not Active | Not Active | Not Active | Not Active | Not Active | Not Active | Not Active | Not Active |  | 6.13 | 6.37 |  |  |  | 
CNC[C@H](O)c1ccc(O)c(O)c1 [EPINEPHRINE] | Not Active | Not Active | Not Active | Not Active | Not Active | Not Active | Not Active | Not Active | Not Active | Not Active |  |  |  |  |  | 
POVIDONE | Not Active | Not Active | Not Active | Not Active | Not Active | Not Active | Not Active | Not Active | Not Active | Not Active |  |  | Not Active | Not Active | Not Active | Not Active
